The test system of this experiment is P388 leukemia ip, CD2F1 mice, survival T/C. Put plainly: NCI In Vivo Anticancer Drug Screen. Data for tumor model P388 Leukemia (intraperitoneal) in CD2F1 (CDF1) mice. The following applies: endpoint: median survival time, higher = longer survival. Put shortly:
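Mice carrying the transplanted tumor received test compound or vehicle. Survival was recorded in each group, and the value is the treated-group measurement divided by that of the vehicle-treated control group.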

Setting [1] is: dose: 50.0 mg/kg/injection, schedule: Q01DX005 (ip), vehicle: Klucel (hydroxypropylcellulose) (HPC).
Setting [2] is: dose: 100.0 mg/kg/injection, schedule: Q01DX005 (ip), vehicle: Klucel (hydroxypropylcellulose) (HPC).
Setting [3] is: dose: 50.0 mg/kg/injection, schedule: Q01DX005 (ip), vehicle: saline with Tween-80.
The mark [4] stands for this setting: dose: 100.0 mg/kg/injection, schedule: Q01DX005 (ip), vehicle: saline with Tween-80.
The mark [5] stands for this setting: dose: 200.0 mg/kg/injection, schedule: Q01DX005 (ip), vehicle: saline with Tween-80.
The mark [6] stands for this setting: dose: 60.0 mg/kg/injection, schedule: Q01DX005 (ip), vehicle: saline with Tween-80.
The mark [7] stands for this setting: dose: 120.0 mg/kg/injection, schedule: Q01DX005 (ip), vehicle: saline with Tween-80.
Setting [8] is: dose: 240.0 mg/kg/injection, schedule: Q01DX005 (ip), vehicle: saline with Tween-80.
Setting [9] is: dose: 50.0 mg/kg/injection, schedule: Q01DX009 (ip), vehicle: Klucel (hydroxypropylcellulose) (HPC).
Setting [10] is: dose: 100.0 mg/kg/injection, schedule: Q01DX009 (ip), vehicle: Klucel (hydroxypropylcellulose) (HPC).
[11] abbreviates: dose: 200.0 mg/kg/injection, schedule: Q01DX009 (ip), vehicle: Klucel (hydroxypropylcellulose) (HPC).
[12] abbreviates: dose: 50.0 mg/kg/injection, schedule: Q04DX003 (ip), vehicle: saline with Tween-80.
Setting [13] is: dose: 50.0 mg/kg/injection, schedule: Q01DX005 (ip), vehicle: saline.
Setting [14] is: dose: 100.0 mg/kg/injection, schedule: Q01DX005 (ip), vehicle: saline.
[15] abbreviates: dose: 200.0 mg/kg/injection, schedule: Q01DX005 (ip), vehicle: saline.

Structures are written as SMILES. “And” between values parts separate entries of the source, which are not always exact repeats. Identical values can stand only once. Toxic doses and inconclusive results are not listed.

Consider `NNC(=O)CS(=O)(=O)Nc1ncccn1`, for which the T/C is, setting by setting: under setting [1], 100 % of control; under setting [2], 100 % of control; (dose: 200.0 mg/kg/injection, schedule: Q01DX005 (ip), vehicle: Klucel (hydroxypropylcellulose) (HPC)) 100 % of control.

For `CCCCCCN(CCCCCC)CC(O)c1cc(-c2ccccc2)nc2cc(Cl)ccc12` (centres undefined), the T/C is 115 % of control under setting [3], 103 % of control under setting [4] and 113 % of control under setting [5].

Regarding `CCC1=C[C@H]2CN(CCc3c([nH]c4ccccc34)[C@@](OC(C)=O)(c3cc4c(cc3OC)N(C)[C@H]3[C@@](O)(C(=O)NCCSc5ccccc5)[C@H](O)[C@]5(CC)C=CCN6CC[C@]43[C@@H]65)C2)C1`, the T/C is 107 % of control (dose: 0.5 mg/kg/injection, schedule: Q01DX001 (ip), vehicle: water); 174 % of control (dose: 8.0 mg/kg/injection, schedule: Q01DX001 (ip), vehicle: water); 163 % of control and 184 % of control (dose: 16.0 mg/kg/injection, schedule: Q01DX001 (ip), vehicle: water).

On to `O=C(O)C(CS(=O)(=O)O)S(=O)(=O)O` (centres undefined), for which the T/C by setting is: (dose: 7.5 mg/kg/injection, schedule: Q01DX009 (ip), vehicle: saline with Tween-80) 110 % of control; (dose: 15.0 mg/kg/injection, schedule: Q01DX009 (ip), vehicle: saline with Tween-80) 109 % of control; (dose: 30.0 mg/kg/injection, schedule: Q01DX009 (ip), vehicle: saline with Tween-80) 106 % of control.

In the case of `c1c[nH]c2c3ccncc3c3ncnc3c2c1`, the T/C under setting [1] is 97 % of control and the T/C under setting [2] is 88 % of control.

For `COC(=O)c1nc(N)nc(C(=O)OC)c1C(=O)c1ccc(N2CCN(c3ccc(C(=O)c4c(C(=O)OC)nc(N)nc4C(=O)OC)cc3)CC2)cc1`, the T/C under setting [6] was 98 % of control, the T/C under setting [7] is 97 % of control and the T/C under setting [8] is 91 % of control.

For the molecule `NC(=O)NC(c1ccc(O)cc1)c1cc2c(cc1O)OCO2` (centres undefined), the T/C is 86 % of control (dose: 60.0 mg/kg/injection, schedule: Q01DX005 (ip), vehicle: Klucel + Tween-80); 86 % of control (dose: 120.0 mg/kg/injection, schedule: Q01DX005 (ip), vehicle: Klucel + Tween-80); 86 % of control (dose: 240.0 mg/kg/injection, schedule: Q01DX005 (ip), vehicle: Klucel + Tween-80).

As for `O=C(Cc1ccccc1)NCCN1CCNCC1`, the T/C (dose: 100.0 mg/kg/injection, schedule: Q01DX001 (ip), vehicle: saline with Tween-80) was 105 % of control; the T/C (dose: 200.0 mg/kg/injection, schedule: Q01DX001 (ip), vehicle: saline with Tween-80) was 108 % of control; the T/C (dose: 400.0 mg/kg/injection, schedule: Q01DX001 (ip), vehicle: saline with Tween-80) was 96 % of control.

As for `CCOC(=O)C(CC1=CS(=O)(=O)c2ccc(Cl)cc21)(NC(C)=O)C(=O)OCC`, the T/C is, setting by setting: under setting [9], 96 % of control; under setting [10], 91 % of control; under setting [11], 87 % of control.

`Cc1cc(N)c(C)c([N+](=O)[O-])c1`: the T/C was 95 % of control under setting [12]; 91 % of control (dose: 100.0 mg/kg/injection, schedule: Q04DX003 (ip), vehicle: saline with Tween-80); 100 % of control (dose: 200.0 mg/kg/injection, schedule: Q04DX003 (ip), vehicle: saline with Tween-80).

Consider `CC(=O)OC(C)C(O)C(O)C(/C=C/C1CC=CC(=O)O1)OC(C)=O` (centres undefined), for which the T/C is 108 % of control (dose: 8.25 mg/kg/injection, schedule: Q01DX005 (ip), vehicle: Klucel (hydroxypropylcellulose) (HPC)); 104 % of control (dose: 16.5 mg/kg/injection, schedule: Q01DX005 (ip), vehicle: Klucel (hydroxypropylcellulose) (HPC)); 104 % of control (dose: 33.0 mg/kg/injection, schedule: Q01DX005 (ip), vehicle: Klucel (hydroxypropylcellulose) (HPC)); 95 % of control (dose: 66.0 mg/kg/injection, schedule: Q01DX005 (ip), vehicle: Klucel (hydroxypropylcellulose) (HPC)).

On to `CC(C(=O)O)c1cn(Cc2ccccc2)c2ccccc12` (centres undefined), for which the T/C under setting [6] was 100 % of control, the T/C under setting [7] was 102 % of control and the T/C under setting [8] was 96 % of control.

`CC(=O)Nc1ccc(S(=O)(=O)N/N=C\c2cc([N+](=O)[O-])ccc2O)cc1`: the T/C is 103 % of control under setting [3], 101 % of control under setting [4] and 93 % of control under setting [5].

For `COC(=O)Nc1nc2ccc(C(=O)OC)cc2[nH]1`, the T/C runs as follows: (dose: 100.0 mg/kg/injection, schedule: Q04DX003 (ip), vehicle: saline) 102 % of control; (dose: 200.0 mg/kg/injection, schedule: Q04DX003 (ip), vehicle: saline) 103 % of control; (dose: 400.0 mg/kg/injection, schedule: Q04DX003 (ip), vehicle: saline) 103 % of control.

On to `Cc1cc(Nc2ccc(N(CCCl)CCCl)cc2)c(C)cc1O`, for which the T/C (dose: 200.0 mg/kg/injection, schedule: Q04DX003 (ip), vehicle: Klucel (hydroxypropylcellulose) (HPC)) is 159 % of control.

As to `NC(CCl)C(=O)O` (centres undefined), the T/C reads like this: under setting [13], 100 % of control; under setting [14], 100 % of control; under setting [15], 100 % of control.

On to `CCOC(=O)C(Cc1ccc(N(CCCl)CCCl)cc1)NC(=O)CNC(C)=O` (centres undefined), for which the T/C (dose: 0.5 mg/kg/injection, schedule: Q04DX003 (ip), vehicle: saline with Tween-80) was 113 % of control; the T/C (dose: 1.0 mg/kg/injection, schedule: Q04DX003 (ip), vehicle: saline with Tween-80) is 104 % of control; the T/C (dose: 12.5 mg/kg/injection, schedule: Q01DX009 (ip), vehicle: saline with Tween-80) was 177 % of control; the T/C (dose: 12.5 mg/kg/injection, schedule: Q04DX003 (ip), vehicle: saline) was 165 % of control; the T/C (dose: 25.0 mg/kg/injection, schedule: Q01DX009 (ip), vehicle: saline with Tween-80) was 268 % of control; the T/C (dose: 33.0 mg/kg/injection, schedule: Q04DX003 (ip), vehicle: saline with Tween-80) is 113 % of control. Besides, under setting [12], the T/C is 90 % of control.

Take `COc1cc(/C=C/C(=O)N2CCN(CC(=O)N3CCCC3)CC2)cc(OC)c1OC`: the T/C was 100 % of control (dose: 50.0 mg/kg/injection, schedule: Q01DX009 (ip), vehicle: saline); 94 % of control (dose: 100.0 mg/kg/injection, schedule: Q01DX009 (ip), vehicle: saline); 95 % of control (dose: 200.0 mg/kg/injection, schedule: Q01DX009 (ip), vehicle: saline).

Regarding `CN(C)CCCNC(=S)C(=S)NCCCN(C)C`, the T/C by setting is: under setting [1], 97 % of control; under setting [2], 105 % of control.

Turning to `O=C1CN(c2ccccc2)CC(=O)N2CCCN12`, the T/C is, setting by setting: (dose: 12.5 mg/kg/injection, schedule: Q01DX005 (ip), vehicle: saline with Tween-80) 100 % of control; (dose: 25.0 mg/kg/injection, schedule: Q01DX005 (ip), vehicle: saline with Tween-80) 96 % of control; under setting [3], 100 % of control.

Take `COC(=O)C1C(Sc2ccccc2)CCN1C(C)=O` (centres undefined): the T/C by setting is: under setting [13], 88 % of control; under setting [14], 88 % of control; under setting [15], 88 % of control.

For the molecule `CCOc1c(Br)cc(/C=C/[N+](=O)[O-])cc1OC`, the T/C runs as follows: (dose: 3.75 mg/kg/injection, schedule: Q01DX005 (ip), vehicle: saline with Tween-80) 103 % of control; (dose: 7.5 mg/kg/injection, schedule: Q01DX005 (ip), vehicle: saline with Tween-80) 112 % of control and 116 % of control; (dose: 15.0 mg/kg/injection, schedule: Q01DX005 (ip), vehicle: saline with Tween-80) 109 % of control and 120 % of control; (dose: 30.0 mg/kg/injection, schedule: Q01DX005 (ip), vehicle: saline with Tween-80) 120 % of control.

Take `COC(=O)c1cc(NS(=O)(=O)N(C)C)cc(C(=O)OC)c1`: the T/C by setting is: under setting [9], 103 % of control; under setting [10], 103 % of control; under setting [11], 103 % of control.

As for `CC(C)(O)C#C[Si](C)(C)C`, the T/C is 98 % of control under setting [3], 103 % of control under setting [4] and 94 % of control under setting [5].
